The text below walks through data of patent publication US20230111310A1, “CARBOXYLIC ACID DERIVATIVE-SUBSTITUTED IMINO ARYL COMPOUND, PREPARATION METHOD THEREFOR, HERBICIDAL COMPOSITION AND USE THEREOF” (Qingdao Kingagroot Chemical Compound Co., Ltd., priority 2020, published 2023).

Holding throughout (assay): Weeding effect in post-emergence stage
Holding throughout (format): in vivo
Holding throughout (details): level of fresh weight growth control rate

The subject of one assay is Echinochloa crusgalli. The gist of the method:
(§1)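 Seeds are sown in soil-filled pots under 0.5-2 cm soil and grown 2 weeks in greenhouse. Plants at 2-3 leaves are sprayed with compound (acetone, Tween 80, 1.5 liter/ha methyl oleate EC, water) at 7.5 to 500 g/ha. Damage is rated 3 weeks later, averaging three repeats.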

The next assay concerns Eleusine indica. The method, boiled down: as §1
In the next assay the test system is Setaria viridis. The gist of the method: as §1
The test system of another assay is Abutilon theophrasti. The method, boiled down:
as §1

A further assay concerns Digitaria sanguinalis. The method, boiled down:
as §1

The subject of a further assay is Alopecurus japonicus. The gist of the method:
as §1

SMILES strings stand for the structures.

On to `CCO/C(C)=N/OC(=O)[C@@H](C)O/N=C/c1cc(-n2c(=O)cc(C(F)(F)F)n(C)c2=O)c(F)cc1Cl` [252(R)], for which, in the assay with Echinochloa crusgalli (Dose 15 g/ha), the “Weeding effect in post-emergence stage, Echinochloa crusgalli” value (“Weeding effect … Echinochloa crusgalli” for short) is on record as 5 (Level 5: growth control rate is above 85%). Besides, the “Weeding effect in post-emergence stage, Eleusine indica” value (“Weeding effect … Eleusine indica” for short) in the assay on Eleusine indica (Dose 15 g/ha) is 5 (Level 5: growth control rate is above 85%). In addition, the “Weeding effect in post-emergence stage, Setaria viridis” value (shortened to “Weeding effect … Setaria viridis”) in the assay on Setaria viridis (Dose 15 g/ha) is 5 (Level 5: growth control rate is above 85%). Further, the “Weeding effect in post-emergence stage, Abutilon theophrasti” value (“Weeding effect … Abutilon theophrasti” below) with Abutilon theophrasti (Dose 15 g/ha) is reported as 5 (Level 5: growth control rate is above 85%). Moreover, the “Weeding effect in post-emergence stage, Digitaria sanguinalis” value (shortened to “Weeding effect … Digitaria sanguinalis”) in the assay on Digitaria sanguinalis (Dose 15 g/ha) is given as 5 (Level 5: growth control rate is above 85%). Further, the “Weeding effect in post-emergence stage, Alopecurus japonicus” value (from here on “Weeding effect … Alopecurus japonicus”) with Alopecurus japonicus (Dose 15 g/ha) is 5 (Level 5: growth control rate is above 85%).
Take `CCOC(=O)C(C)=NOC(=O)C(C)ON=Cc1cc(-n2c(=O)cc(C(F)(F)F)n(C)c2=O)c(F)cc1Cl` [254(R)]: the “Weeding effect … Echinochloa crusgalli” value in the assay with Echinochloa crusgalli (Dose 15 g/ha) is on record as 5 (Level 5: growth control rate is above 85%). For the same compound, the “Weeding effect … Eleusine indica” value in the assay with Eleusine indica (Dose 15 g/ha) is 5 (Level 5: growth control rate is above 85%). Further, in the assay with Setaria viridis (Dose 15 g/ha), the “Weeding effect … Setaria viridis” value is 5 (Level 5: growth control rate is above 85%). In the assay with Abutilon theophrasti (Dose 15 g/ha), the “Weeding effect … Abutilon theophrasti” value is 5 (Level 5: growth control rate is above 85%). Also, the “Weeding effect … Digitaria sanguinalis” value in the assay on Digitaria sanguinalis (Dose 15 g/ha) is 5 (Level 5: growth control rate is above 85%). Further, the “Weeding effect … Alopecurus japonicus” value in the assay on Alopecurus japonicus (Dose 15 g/ha) is on record as 5 (Level 5: growth control rate is above 85%).
Regarding `C[C@@H](O/N=C/c1cc(-n2c(=O)cc(C(F)(F)F)n(C)c2=O)c(F)cc1Cl)C(=O)O/N=C/c1ccccc1` [255(R)], the “Weeding effect … Echinochloa crusgalli” value in the assay on Echinochloa crusgalli (Dose 30 g/ha) was 5 (Level 5: growth control rate is above 85%). For the same compound, the “Weeding effect … Eleusine indica” value in the assay with Eleusine indica (Dose 30 g/ha) was 5 (Level 5: growth control rate is above 85%). Besides, the “Weeding effect … Setaria viridis” value with Setaria viridis (Dose 30 g/ha) is given as 5 (Level 5: growth control rate is above 85%). In addition, the “Weeding effect … Abutilon theophrasti” value in the assay with Abutilon theophrasti (Dose 30 g/ha) is reported as 5 (Level 5: growth control rate is above 85%). Besides, the “Weeding effect … Digitaria sanguinalis” value in the assay on Digitaria sanguinalis (Dose 30 g/ha) was 5 (Level 5: growth control rate is above 85%). Moreover, the “Weeding effect … Alopecurus japonicus” value in the assay with Alopecurus japonicus (Dose 30 g/ha) was 5 (Level 5: growth control rate is above 85%).
On to `CC(C)=NOCCOC(=O)[C@@H](C)O/N=C/c1cc(-n2c(=O)cc(C(F)(F)F)n(C)c2=O)c(F)cc1Cl` [259(R)], for which the “Weeding effect … Echinochloa crusgalli” value in the assay on Echinochloa crusgalli (Dose 30 g/ha) is 5 (Level 5: growth control rate is above 85%). For the same compound, the “Weeding effect … Eleusine indica” value in the assay with Eleusine indica (Dose 30 g/ha) is recorded as 5 (Level 5: growth control rate is above 85%). Moreover, the “Weeding effect … Setaria viridis” value in the assay with Setaria viridis (Dose 30 g/ha) is 5 (Level 5: growth control rate is above 85%). In the assay on Abutilon theophrasti (Dose 30 g/ha), the “Weeding effect … Abutilon theophrasti” value was 5 (Level 5: growth control rate is above 85%). For the same compound, the “Weeding effect … Digitaria sanguinalis” value in the assay with Digitaria sanguinalis (Dose 30 g/ha) is recorded as 5 (Level 5: growth control rate is above 85%). Also, the “Weeding effect … Alopecurus japonicus” value with Alopecurus japonicus (Dose 30 g/ha) is reported as 5 (Level 5: growth control rate is above 85%).
On to `C[C@@H](O/N=C/c1cc(-n2c(=O)cc(C(F)(F)F)n(C)c2=O)c(F)cc1Cl)C(=O)Oc1ccccc1` [262(R)], for which the “Weeding effect … Echinochloa crusgalli” value in the assay on Echinochloa crusgalli (Dose 15 g/ha) is on record as 5 (Level 5: growth control rate is above 85%). Also, in the assay on Eleusine indica (Dose 15 g/ha), the “Weeding effect … Eleusine indica” value is 5 (Level 5: growth control rate is above 85%). In addition, the “Weeding effect … Setaria viridis” value with Setaria viridis (Dose 15 g/ha) is listed as 5 (Level 5: growth control rate is above 85%). In addition, the “Weeding effect … Abutilon theophrasti” value with Abutilon theophrasti (Dose 15 g/ha) is listed as 5 (Level 5: growth control rate is above 85%). In addition, in the assay with Digitaria sanguinalis (Dose 15 g/ha), the “Weeding effect … Digitaria sanguinalis” value was 5 (Level 5: growth control rate is above 85%). Further, the “Weeding effect … Alopecurus japonicus” value in the assay with Alopecurus japonicus (Dose 15 g/ha) is given as 5 (Level 5: growth control rate is above 85%).
Consider `C[C@@H](O/N=C/c1cc(-n2c(=O)cc(C(F)(F)F)n(C)c2=O)c(F)cc1Cl)C(=O)ON1C(=O)CCC1=O` [263(R)], for which the “Weeding effect … Echinochloa crusgalli” value in the assay on Echinochloa crusgalli (Dose 60 g/ha) is 5 (Level 5: growth control rate is above 85%). Further, in the assay with Eleusine indica (Dose 60 g/ha), the “Weeding effect … Eleusine indica” value is 5 (Level 5: growth control rate is above 85%). Also, in the assay on Setaria viridis (Dose 60 g/ha), the “Weeding effect … Setaria viridis” value is 5 (Level 5: growth control rate is above 85%). Further, in the assay with Abutilon theophrasti (Dose 60 g/ha), the “Weeding effect … Abutilon theophrasti” value was 5 (Level 5: growth control rate is above 85%). Also, in the assay on Digitaria sanguinalis (Dose 60 g/ha), the “Weeding effect … Digitaria sanguinalis” value was 5 (Level 5: growth control rate is above 85%). For the same compound, the “Weeding effect … Alopecurus japonicus” value in the assay with Alopecurus japonicus (Dose 60 g/ha) was 5 (Level 5: growth control rate is above 85%).
In the case of `C[C@@H](O/N=C/c1cc(-n2c(=O)cc(C(F)(F)F)n(C)c2=O)c(F)cc1Cl)C(=O)OCC1OCCO1` [266(R)], the “Weeding effect … Echinochloa crusgalli” value with Echinochloa crusgalli (Dose 30 g/ha) is reported as 5 (Level 5: growth control rate is above 85%). Moreover, the “Weeding effect … Eleusine indica” value in the assay on Eleusine indica (Dose 30 g/ha) was 5 (Level 5: growth control rate is above 85%). The “Weeding effect … Setaria viridis” value in the assay on Setaria viridis (Dose 30 g/ha) is on record as 5 (Level 5: growth control rate is above 85%). Further, in the assay on Abutilon theophrasti (Dose 30 g/ha), the “Weeding effect … Abutilon theophrasti” value is recorded as 5 (Level 5: growth control rate is above 85%). In addition, the “Weeding effect … Digitaria sanguinalis” value with Digitaria sanguinalis (Dose 30 g/ha) is 5 (Level 5: growth control rate is above 85%). The “Weeding effect … Alopecurus japonicus” value in the assay with Alopecurus japonicus (Dose 30 g/ha) is 5 (Level 5: growth control rate is above 85%).
With `C[C@@H](O/N=C/c1cc(-n2c(=O)cc(C(F)(F)F)n(C)c2=O)c(F)cc1Cl)C(=O)OCc1cccs1` [268(R)], the “Weeding effect … Echinochloa crusgalli” value in the assay on Echinochloa crusgalli (Dose 30 g/ha) is given as 5 (Level 5: growth control rate is above 85%). Also, the “Weeding effect … Eleusine indica” value with Eleusine indica (Dose 30 g/ha) was 5 (Level 5: growth control rate is above 85%). The “Weeding effect … Setaria viridis” value in the assay with Setaria viridis (Dose 30 g/ha) is listed as 5 (Level 5: growth control rate is above 85%). The “Weeding effect … Abutilon theophrasti” value in the assay with Abutilon theophrasti (Dose 30 g/ha) is given as 5 (Level 5: growth control rate is above 85%). Besides, the “Weeding effect … Digitaria sanguinalis” value with Digitaria sanguinalis (Dose 30 g/ha) is 5 (Level 5: growth control rate is above 85%). For the same compound, the “Weeding effect … Alopecurus japonicus” value in the assay with Alopecurus japonicus (Dose 30 g/ha) is reported as 5 (Level 5: growth control rate is above 85%).
As to `C[C@@H](O/N=C/c1cc(-n2c(=O)cc(C(F)(F)F)n(C)c2=O)c(F)cc1Cl)C(=O)OCc1ccccc1F` [284(R)], in the assay with Echinochloa crusgalli (Dose 15 g/ha), the “Weeding effect … Echinochloa crusgalli” value is listed as 5 (Level 5: growth control rate is above 85%). The “Weeding effect … Eleusine indica” value with Eleusine indica (Dose 15 g/ha) is on record as 5 (Level 5: growth control rate is above 85%). Besides, the “Weeding effect … Setaria viridis” value in the assay with Setaria viridis (Dose 15 g/ha) is 5 (Level 5: growth control rate is above 85%). Further, the “Weeding effect … Abutilon theophrasti” value with Abutilon theophrasti (Dose 15 g/ha) is 5 (Level 5: growth control rate is above 85%). Moreover, the “Weeding effect … Digitaria sanguinalis” value in the assay on Digitaria sanguinalis (Dose 15 g/ha) is on record as 5 (Level 5: growth control rate is above 85%). In addition, the “Weeding effect … Alopecurus japonicus” value with Alopecurus japonicus (Dose 15 g/ha) was 5 (Level 5: growth control rate is above 85%).
With `C[C@@H](O/N=C/c1cc(-n2c(=O)cc(C(F)(F)F)n(C)c2=O)c(F)cc1Cl)C(=O)OCc1cccc(F)c1` [285(R)], the “Weeding effect … Echinochloa crusgalli” value in the assay with Echinochloa crusgalli (Dose 30 g/ha) was 5 (Level 5: growth control rate is above 85%). In the assay with Eleusine indica (Dose 30 g/ha), the “Weeding effect … Eleusine indica” value is 5 (Level 5: growth control rate is above 85%). The “Weeding effect … Setaria viridis” value with Setaria viridis (Dose 30 g/ha) was 5 (Level 5: growth control rate is above 85%). Further, the “Weeding effect … Abutilon theophrasti” value in the assay on Abutilon theophrasti (Dose 30 g/ha) is 5 (Level 5: growth control rate is above 85%). In addition, in the assay with Digitaria sanguinalis (Dose 30 g/ha), the “Weeding effect … Digitaria sanguinalis” value is reported as 5 (Level 5: growth control rate is above 85%). The “Weeding effect … Alopecurus japonicus” value in the assay on Alopecurus japonicus (Dose 30 g/ha) is 5 (Level 5: growth control rate is above 85%).
